Source: paper PMC13494812, “Towards the Targeted Protein Degradation of PRMT1” (Chemmedchem, 2024)
Each block holds one compound with its values, some of them ahead of it.

Experiments:
PRMT1 [1] = target: T1, PRMT1 (Homo sapiens, UniProt Q99873); test: ADMA and MMA levels by Western blot in MCF-7 cells (PRMT1 / Type I PRMT inhibition); assay type: cell-based; conditions: 10 μM, 24 h; for change in monomethylation of arginine (MMA): Western blot
T1 construct: endogenous in cells; host or cells: MCF-7
T1 sequence (Q99873 whole entry): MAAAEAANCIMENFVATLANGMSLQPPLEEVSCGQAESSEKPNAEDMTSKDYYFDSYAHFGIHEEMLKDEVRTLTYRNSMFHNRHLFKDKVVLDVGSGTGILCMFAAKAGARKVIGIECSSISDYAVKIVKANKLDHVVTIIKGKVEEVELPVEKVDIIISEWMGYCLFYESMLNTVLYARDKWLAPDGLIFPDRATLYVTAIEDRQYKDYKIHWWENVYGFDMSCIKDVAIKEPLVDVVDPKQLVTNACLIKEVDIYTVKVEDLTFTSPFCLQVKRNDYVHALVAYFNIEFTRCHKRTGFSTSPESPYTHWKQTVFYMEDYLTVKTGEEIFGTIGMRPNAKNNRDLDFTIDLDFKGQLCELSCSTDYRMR
Excerpt: The cells were allowed to adhere overnight.
manufacturer’s instructions.

KP-3 line = test: Cytotoxicity seen in the KP-3 degradation experiment; assay type: cell-based, human; conditions: KP-3 cells, 10 μM, 24 h
Procedure: Figure S5. VHL-recruiting PROTACs in two PDAC-derived cell lines. Western blot of PROTAC A-F in two PDAC-derived cell lines at 10 µM. HPAF-II and KP-3 cells were treated with the indicated compounds at 10 µM for 24 h and then harvested for analysis by Western blot. PROTAC E and PROTAC F were cytotoxic in the KP-3 line.
(1 picture or pasted object on this page, not shown here)

MCF-7 cell line = test: Cytotoxicity seen in the MCF-7 degradation experiment; assay type: cell-based, human; conditions: MCF-7 cells, 10 μM, 24 h
NLuc-CRBN fusion protein = target: T2, NLuc-CRBN fusion protein (Homo sapiens, UniProt Q96SW2); test: CRBN NanoBRET Target Engagement assay in live MCF-7 cells; assay type: cell-based; conditions: 0.5 µM tracer, 2 h, read-out: IC50, half-maximal inhibition of tracer binding to NLuc-CRBN
T2 construct: host or cells: MCF-7
T2 sequence (Q16531 whole entry, the tested form may be a part): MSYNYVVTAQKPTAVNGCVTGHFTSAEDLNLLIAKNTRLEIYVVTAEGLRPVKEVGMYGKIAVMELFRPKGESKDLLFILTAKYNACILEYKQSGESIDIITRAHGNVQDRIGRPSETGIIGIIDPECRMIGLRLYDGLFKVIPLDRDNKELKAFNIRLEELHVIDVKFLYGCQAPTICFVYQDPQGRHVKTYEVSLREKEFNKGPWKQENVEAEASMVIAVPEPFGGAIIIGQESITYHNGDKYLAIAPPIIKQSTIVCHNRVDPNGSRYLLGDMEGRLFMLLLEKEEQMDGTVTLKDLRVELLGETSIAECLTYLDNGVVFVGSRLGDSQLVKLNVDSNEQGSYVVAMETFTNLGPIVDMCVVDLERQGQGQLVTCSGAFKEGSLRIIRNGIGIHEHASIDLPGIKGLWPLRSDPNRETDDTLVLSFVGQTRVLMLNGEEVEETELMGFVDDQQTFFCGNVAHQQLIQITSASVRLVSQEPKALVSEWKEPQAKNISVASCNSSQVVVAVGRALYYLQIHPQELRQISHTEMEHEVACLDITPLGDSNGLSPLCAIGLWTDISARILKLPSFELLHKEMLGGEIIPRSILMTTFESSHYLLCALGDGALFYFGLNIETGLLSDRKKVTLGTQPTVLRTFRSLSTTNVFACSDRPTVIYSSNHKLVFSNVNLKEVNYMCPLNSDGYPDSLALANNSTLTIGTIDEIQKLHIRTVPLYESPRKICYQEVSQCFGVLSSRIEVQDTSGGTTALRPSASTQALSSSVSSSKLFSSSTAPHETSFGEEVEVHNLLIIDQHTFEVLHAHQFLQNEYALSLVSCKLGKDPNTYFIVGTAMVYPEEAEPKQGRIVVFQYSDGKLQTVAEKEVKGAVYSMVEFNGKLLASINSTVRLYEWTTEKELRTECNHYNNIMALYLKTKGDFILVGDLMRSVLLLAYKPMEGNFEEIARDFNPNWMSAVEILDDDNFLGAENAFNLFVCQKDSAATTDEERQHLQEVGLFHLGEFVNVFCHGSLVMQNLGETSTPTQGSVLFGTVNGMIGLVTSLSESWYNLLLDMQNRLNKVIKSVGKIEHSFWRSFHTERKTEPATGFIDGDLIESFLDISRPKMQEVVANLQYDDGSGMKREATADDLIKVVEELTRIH
T2 sequence (Q96SW2 whole entry, the tested form may be a part): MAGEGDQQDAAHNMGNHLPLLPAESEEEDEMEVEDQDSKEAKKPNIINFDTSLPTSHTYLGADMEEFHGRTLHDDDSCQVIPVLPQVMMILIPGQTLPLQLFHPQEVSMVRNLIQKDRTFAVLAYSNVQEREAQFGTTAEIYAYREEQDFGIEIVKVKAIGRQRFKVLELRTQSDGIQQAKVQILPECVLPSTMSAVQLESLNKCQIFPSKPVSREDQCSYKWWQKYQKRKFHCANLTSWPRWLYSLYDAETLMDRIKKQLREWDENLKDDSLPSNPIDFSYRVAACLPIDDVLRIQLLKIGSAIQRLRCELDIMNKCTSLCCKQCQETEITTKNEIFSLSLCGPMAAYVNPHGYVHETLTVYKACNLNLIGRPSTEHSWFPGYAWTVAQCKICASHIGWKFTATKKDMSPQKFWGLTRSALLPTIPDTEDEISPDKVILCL

[2] = PROTAC stability in cell culture media; assay type: in vitro ADME; conditions: read-out: t1/2 in cell culture media (converted)
Excerpt: A SEM protecting group was employed on the glutarimide ring of CRBN ligand 6. Three CRBN‐recruiting PROTACs were synthesised by the O‐alkylation of PRMT1 ligand 4 with the corresponding linker 8 j–l to give 9 j–l which underwent a subsequent O‐alkylation with SEM‐protected CRBN ligand 12. The removal of the protecting groups was then attempted using acidic conditions. The N‐Boc and THP protecting groups on the PRMT1 ligand were removed however the SEM group on the CRBN ligand was converted to an N‐hydroxymethyl functional group. This group was removed under basic conditions to afford PROTACs J–L (Scheme 3 A). It is documented that the glutarimide ring and the phthalimide group of the CRBN ligand are susceptible to hydrolysis,[50, 51] and the stability of PROTAC L in cell culture media was investigated and found to be short (t1/2=0.9 h). Changing the functional group between the CRBN ligand and linker can affect the susceptibility of the ligand to hydrolysis.[52] PROTAC M was synthesised, which comprised a similar structure as PROTAC L, but with an amino group between the linker and CRBN ligand (Scheme 3 B).

PRMT6 = target: T3, PRMT6 (Homo sapiens, UniProt Q96LA8); test: PRMT6 degradation assay by Western blot in MCF-7 cells; assay type: cell-based; conditions: 1 and 0.1 μM, 24 h
T3 construct: endogenous in cells; host or cells: MCF-7
T3 sequence (Q96LA8 whole entry): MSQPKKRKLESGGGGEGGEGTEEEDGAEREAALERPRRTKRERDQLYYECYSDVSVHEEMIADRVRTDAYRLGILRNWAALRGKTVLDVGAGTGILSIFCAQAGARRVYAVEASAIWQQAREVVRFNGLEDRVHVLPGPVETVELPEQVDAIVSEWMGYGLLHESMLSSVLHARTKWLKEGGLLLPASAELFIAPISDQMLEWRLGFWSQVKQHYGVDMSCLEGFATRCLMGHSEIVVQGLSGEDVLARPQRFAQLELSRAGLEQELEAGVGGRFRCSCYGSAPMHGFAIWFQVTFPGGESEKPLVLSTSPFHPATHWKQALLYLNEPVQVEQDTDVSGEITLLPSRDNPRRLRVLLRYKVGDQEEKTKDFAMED
Procedure: At 10 μM in the MCF‐7 cell line, PRMT1 degradation was not observed with any of the synthesised PROTACs (Figure 3A). PROTAC E and PROTAC F were cytotoxic and not analysed. […]. PRMT8 is expressed primarily in the brain and thus not investigated.[46]
Figure 3 PRMT1 and PRMT6 degradation assays with VHL‐recruiting PROTACs. A) PROTACs A–I at 10 μM. PROTACs E–F were cytotoxic and not analysed. MCF‐7 cells were treated with the indicated compound for 24 h and then harvested for analysis by Western blot. B) Same as A but PROTACs tested at 1 and 0.1 μM. Image representative of two independent experiments. Uncropped blots are shown in ESI†.
Figure 5 PRMT1 and PRMT6 degradation assays with CRBN‐recruiting PROTACs. A) PROTACs J–O at 10 μM. MCF‐7 cells were treated with the indicated compound for 24 h and then harvested for analysis by Western blot. B) Same as A but PROTAC N tested at 1 and 0.1 μM. […]
(§1) Western Blot Cells were counted using the Vi-CELL XR cell viability analyser, as per manufactures instructions, and the desired number of cells seeded in full media in individual 10 cm plates (Corning, #430167). […]
(§2) The pellet was resuspended in RIPA buffer containing protease and phosphatase inhibitor and incubated at 4 °C for 10 minutes with rotation. […] The supernatant was transferred and the protein concentration quantified by the Direct Detect Spectrometer as per manufacturer’s instructions. […]

PRMT1 [3] = target: T1, PRMT1; test: PRMT1 degradation assay by Western blot in MCF-7 cells; assay type: cell-based; conditions: 1 and 0.1 μM, 24 h
Excerpt: A sensitive and selective Western blot protocol was validated to investigate the effect of PROTAC treatment on the cellular levels of PRMT1 in the MCF‐7 cell line (Figure S4, ESI†). Derived from a metastatic breast adenocarcinoma, the MCF‐7 cell line has the hormone receptor status that characterises the most frequently diagnosed subtype of breast cancer: ER‐positive, PR‐positive, HER2‐negative.[43, 44] This breast cancer subtype, and consequently the MCF‐7 cell line, are a suitable model system to predict the clinical efficacy of PRMT1 PROTACs; PRMT1 upregulation correlates with a reduction in relapse‐free survival for patients with this breast cancer subtype[6, 45] and anti‐proliferative effects have been observed in the MCF‐7 cell line following pan‐Type I PRMT inhibition.[17, 20]
Figure 3 PRMT1 and PRMT6 degradation assays with VHL‐recruiting PROTACs. […] PROTACs E–F were cytotoxic and not analysed. […]
as §1, §2

CRBN = target: T4, CRBN (Homo sapiens, UniProt Q96SW2); test: CRBN binding of N-alkylated molecule 7 (Figure S6)
T4 construct: host or cells: MCF-7
T4 sequence (Q96SW2 whole entry): as the sequence (Q96SW2 whole entry, the tested form may be a part) above
T4 sequence (Q16531 whole entry, further chain): as the sequence (Q16531 whole entry, the tested form may be a part) above
Excerpt: To synthesise PROTACs that recruit the CRBN E3‐ligase, PRMT1 ligand 4 underwent a Mitsunobu reaction to produce 5 which was then used for the alkylation of CRBN ligand 6.

change in monomethylation of arginine (MMA) (PRMT1 [1]): significant increase
SMILES: CNCCN(C)Cc1c[nH]nc1-c1ccc(OCCCCCCCC(=O)N[C@H](C(=O)N2C[C@H](O)C[C@H]2C(=O)NCc2ccc(-c3scnc3C)cc2)C(C)(C)C)cc1 [PROTAC C]

change in monomethylation of arginine (MMA) (PRMT1 [1]): significant increase
SMILES: CNCCN(C)Cc1c[nH]nc1-c1ccc(OCCCCCCCCCC(=O)N[C@H](C(=O)N2C[C@H](O)C[C@H]2C(=O)NCc2ccc(-c3scnc3C)cc2)C(C)(C)C)cc1 [PROTAC D]

SMILES: CNCCN(C)Cc1c[nH]nc1-c1ccc(OCCCCCCCCCCCC(=O)N[C@H](C(=O)N2C[C@H](O)C[C@H]2C(=O)NCc2ccc(-c3scnc3C)cc2)C(C)(C)C)cc1 [PROTAC E]
cytotoxicity (KP-3 line): cytotoxic
cytotoxicity (MCF-7 cell line): cytotoxic

SMILES: CNCCN(C)Cc1c[nH]nc1-c1ccc(OCCCCCCCCCCCCCCCC(=O)N[C@H](C(=O)N2C[C@H](O)C[C@H]2C(=O)NCc2ccc(-c3scnc3C)cc2)C(C)(C)C)cc1 [PROTAC F]
cytotoxicity (KP-3 line): cytotoxic
cytotoxicity (MCF-7 cell line): cytotoxic

IC50 (NLuc-CRBN fusion protein): > 10000 nM
half-life [2]: 0.9 h
SMILES: CNCCN(C)Cc1c[nH]nc1-c1ccc(OCCOCCOCCOCCOCCOCCOc2cccc3c2C(=O)N(C2CCC(=O)NC2=O)C3=O)cc1 (stereo not drawn) [PROTAC L]

IC50 (NLuc-CRBN fusion protein): 1900 nM
half-life [2]: 2.1 h
SMILES: CNCCN(C)Cc1c[nH]nc1-c1ccc(OCCOCCOCCOCCOCCOCCNc2cccc3c2C(=O)N(C2CCC(=O)NC2=O)C3=O)cc1 (stereo not drawn) [PROTAC M]

IC50 (NLuc-CRBN fusion protein): 200 nM
inhibition of PRMT1 activity (PRMT1 [1]; ADMA/MMA Western blot): inhibited PRMT1 activity
SMILES: CNCCN(C)Cc1c[nH]nc1-c1ccc(OCCCCCCNc2cccc3c2C(=O)N(C2CCC(=O)NC2=O)C3=O)cc1 (stereo not drawn) [PROTAC N]
PRMT6 degradation (PRMT6): neither PRMT1 nor PRMT6 degradation was observed
PRMT1 degradation (PRMT1 [3]): neither PRMT1 nor PRMT6 degradation was observed

CRBN binding (CRBN): does not bind CRBN
SMILES: CNCCN(C)Cc1c[nH]nc1-c1ccc(OCCOCCN2C(=O)CCC(N3C(=O)c4cccc(O)c4C3=O)C2=O)cc1 (stereo not drawn) [compound 7]
